Measurements from PubChem BioAssay (NCI).
Values joined by “and” are separate entries in the source; they are usually repeats but may differ in a detail not shown here. Identical values can stand only once.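 Five concentrations, 48 hours, 96-well plates. The concentration for 50% growth inhibition is given as GI50. TGI marks complete inhibition of growth.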

Assays:
Assay in all cases: NCI-60 cell line screen, 48 h
NCI-H460 lung = system: NCI-H460 lung
SF-295 CNS = system: SF-295 CNS
SW-620 colon = system: SW-620 colon
NCI/ADR-RES ovarian = system: NCI/ADR-RES ovarian
PC-3 prostate = system: PC-3 prostate
HCC-2998 colon = system: HCC-2998 colon
A498 renal = system: A498 renal
KM12 colon = system: KM12 colon
NCI-H226 lung = system: NCI-H226 lung
OVCAR-5 ovarian = system: OVCAR-5 ovarian

Row | Structure (SMILES) | GI50 (NCI-H460 lung) | TGI (NCI-H460 lung) | GI50 (SF-295 CNS) | TGI (SF-295 CNS) | GI50 (SW-620 colon) | TGI (SW-620 colon) | GI50 (NCI/ADR-RES ovarian) | TGI (NCI/ADR-RES ovarian) | GI50 (PC-3 prostate) | TGI (PC-3 prostate) | GI50 (HCC-2998 colon) | TGI (HCC-2998 colon) | GI50 (A498 renal) | TGI (A498 renal) | GI50 (KM12 colon) | TGI (KM12 colon) | GI50 (NCI-H226 lung) | TGI (NCI-H226 lung) | GI50 (OVCAR-5 ovarian) [µM] | TGI (OVCAR-5 ovarian)
1 | NC(=O)CCC(NC(=O)OCc1ccccc1)C(=O)OCC(=O)c1ccccc1 (stereo not drawn) | > 100 µM | > 100 µM | > 100 µM | > 100 µM | > 100 µM | > 100 µM | > 100 µM | > 100 µM | > 100 µM | > 100 µM | 65.6 µM | > 100 µM | > 100 µM | > 100 µM | > 100 µM | > 100 µM | > 100 µM | > 100 µM | > 100 | > 100 µM
2 | C[C@]12O[C@H](C[C@]1(O)CO)n1c3ccccc3c3c4c(c5c6ccccc6n2c5c31)CNC4=O | 0.11 µM and 0.12 µM | 1.63 µM and 1.78 µM | 0.171 µM and 0.101 µM | 2.45 µM and 2.02 µM | 0.05 µM and 0.0589 µM | > 10 µM and 7.84 µM | 0.87 µM and 1.37 µM | 5.15 µM and 7.26 µM | 0.0846 µM and 0.133 µM | > 5.89 µM and 3.9 µM | 0.33 µM and 0.237 µM | 2.5 µM and 2.96 µM | 0.013 µM and 0.0148 µM | 0.114 µM and 0.0943 µM | 0.00535 µM and < 0.01 µM | 1.4 µM and 0.982 µM | 0.267 µM and 0.272 µM | 1.79 µM and 2.05 µM | 0.114 | > 10 µM and 4.79 µM
3 | COc1ccc(OC)c(-c2nc3sccn3c2/C=C2/C(=O)Nc3ccc(Cl)cc32)c1 | 26 µM | 65 µM | 19.4 µM | 51.5 µM | 31.2 µM | > 100 µM | 25.6 µM | 89.8 µM | 27.2 µM | > 100 µM | 18.4 µM | 33.9 µM | 20.8 µM | 38.8 µM | 35.8 µM | > 100 µM | 20.8 µM | 67.3 µM | 30 | > 100 µM
4 | Nc1ncnc2c1c(C(F)(F)F)cn2[C@@H]1O[C@H](CO)[C@@H](O)[C@H]1O | 0.262 µM | > 43.6 µM | 0.442 µM | > 23.3 µM | 0.0644 µM | > 100 µM | 0.363 µM | > 100 µM | 0.0725 µM | – | 0.633 µM | 12.8 µM | 0.0936 µM | 1.95 µM | 0.134 µM | – | 1.12 µM | 79.7 µM | 1.02 | > 72.2 µM
5 | CC(=O)Oc1ccc(OC(C)=O)c2ccccc12 | 29.1 µM | > 100 µM | 20.9 µM | > 100 µM | 13.8 µM | 33.2 µM | 3.27 µM | 15.2 µM | 6.24 µM | 25.6 µM | 17.5 µM | 31.7 µM | 19.2 µM | 48.4 µM | 10.9 µM | 23.4 µM | 14.4 µM | 31.3 µM | 17.5 | 31.7 µM
6 | CC1(C)CCC[C@]23C(=O)O[C@](O)(C(=O)C4=C[C@@](C)(/C=C/CCCc5ccc6ccc7cccc8ccc5c6c78)CC[C@@]42O)[C@@H]13 | 0.18 µM | 0.374 µM | 0.178 µM | 0.336 µM | 0.179 µM | 0.379 µM | 0.221 µM | 0.532 µM | 0.166 µM | 0.378 µM | 0.176 µM | 0.323 µM | 0.15 µM | 0.288 µM | 0.154 µM | 0.34 µM | 0.166 µM | 0.328 µM | 0.187 | 0.376 µM
7 | COc1ccc(/C=C/c2c(C(=O)/C=C/c3ccc(Cl)cc3)c(C)nc3ccccc23)cc1 | 2.13 µM | 5.61 µM | 1.72 µM | 3.61 µM | 1.85 µM | 6.02 µM | 2.11 µM | 5.61 µM | 1.96 µM | 5.89 µM | 1.57 µM | 3.06 µM | 1.89 µM | 3.39 µM | 1.73 µM | 3.56 µM | 1.8 µM | 3.72 µM | 2.08 | 4.98 µM
8 | Nc1[nH]c(=O)ncc1F | – | > 100 µM | – | > 100 µM | – | > 100 µM | – | > 100 µM | – | > 100 µM | – | > 100 µM | – | > 100 µM | – | > 100 µM | – | > 100 µM | – | > 100 µM
9 | CN(C)CCCNc1nn2c(=O)c3ccccc3nc2c2ccccc12 | 3.35 µM | 13.6 µM | 3.86 µM | 24.5 µM | 4.94 µM | 19 µM | 12.3 µM | 35.5 µM | 11.7 µM | 36.9 µM | 11.6 µM | 26.9 µM | 9.06 µM | 21.4 µM | 11.2 µM | 27.2 µM | 5.13 µM | 25.5 µM | 12.8 | 34.3 µM
10 | COc1ccccc1/C=C\c1cnnc2ccccc12 | – | > 10 µM | – | > 10 µM | – | > 10 µM | – | > 10 µM | – | > 10 µM | – | > 10 µM | – | > 10 µM | – | > 10 µM | – | > 10 µM | – | > 10 µM
11 | O=P(Oc1ccc(Cl)cc1)(Oc1ccc(Cl)cc1)N1CC1 | – | > 10 µM | – | > 10 µM | – | > 10 µM | – | > 10 µM | – | > 10 µM | – | > 10 µM | – | > 10 µM | – | > 10 µM | – | > 10 µM | – | > 10 µM
12 | O=C1NC(=O)/C(=C/C=C/c2ccccc2)S1 | 2.83 µM | 13.8 µM | 0.576 µM | 6.35 µM | 11.2 µM | > 59.1 µM | 2.87 µM | > 100 µM | 19.4 µM | > 100 µM | 1.95 µM | 11.1 µM | 0.373 µM | 18.8 µM | 8.25 µM | 21.8 µM | 14 µM | > 80.8 µM | 14.1 | > 100 µM
13 | S=c1nc(-c2nc(=S)[nH]c3c2CCCCCCCCCC3)c2c([nH]1)CCCCCCCCCC2 | – | > 100 µM | – | > 100 µM | – | > 100 µM | – | > 100 µM | – | > 100 µM | – | > 100 µM | – | > 100 µM | – | > 100 µM | – | > 100 µM | – | > 100 µM
